Data published in patent US7910588B2, “5-HT7 receptor antagonists” (Eli Lilly and Company, priority 2007, dated 2011).
Where “and” joins values, the source holds several entries; their conditions need not be identical. Identical values can stand only once.

Experiments:
[1] = molecular target: T1, 5-HT1A (Homo sapiens, UniProt P08908); assay: Radioligand binding assay, 5-HT1A
T1 construct: expressed in transfected cells
T1 sequence (P08908 1-422): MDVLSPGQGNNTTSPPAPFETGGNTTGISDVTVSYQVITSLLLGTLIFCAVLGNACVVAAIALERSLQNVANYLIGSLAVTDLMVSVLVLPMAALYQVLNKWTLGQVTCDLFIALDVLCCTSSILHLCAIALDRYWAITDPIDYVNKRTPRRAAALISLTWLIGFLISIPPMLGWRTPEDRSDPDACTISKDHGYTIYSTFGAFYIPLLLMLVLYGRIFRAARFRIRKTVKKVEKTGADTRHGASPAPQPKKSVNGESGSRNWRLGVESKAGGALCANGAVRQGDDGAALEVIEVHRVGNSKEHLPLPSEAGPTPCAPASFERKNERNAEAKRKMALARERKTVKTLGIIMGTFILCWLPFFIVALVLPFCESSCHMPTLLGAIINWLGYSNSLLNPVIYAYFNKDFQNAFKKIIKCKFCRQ
Experimental: (§1) [^3H] […] The reactions are incubated at room temperature for 3 hr. and then counted in a Trilux Microbeta™ scintillation counter to detect receptor-bound radioligand. Binding data are analyzed by computer-assisted 4 parameter fit analysis (ID Business Solutions Ltd, Guildford, Surrey, UK). […]
(§2) Affinity for other serotonin receptor subtypes as well as for alpha 1 & 2 adrenergic receptors can readily be determined by modification of the above described radioligand receptor binding assay using membranes derived from cells stably expressing the desired receptor subtype including the 5-HT1A, 5-HT1B, and 5-HT1D subtypes, as well as the 5-HT2A, 5-HT2B, 5-HT2C, 5-HT4, 5-HT7, and 5-HT6 receptor subtypes. […]

[2] = molecular target: T2, 5-HT7 receptor (Homo sapiens, UniProt P34969); assay: 5-HT7 receptor affinity: [3H]5-HT radioligand binding assay; conditions: membranes of AV-12 cells, 1 nM [3H]5-HT
T2 construct: expressed in transfected cells
Experimental: Membranes for affinity and antagonist activity assays are prepared essentially as follows. AV-12 cells, stably expressing the 5-HT7 receptor, are grown as a monolayer in 5×T-150 flasks in DMEM/F12 (3:1) 5% FBS, 20 mM HEPES, […] geneticin, 50 mg/mL tobramycin. After growing to 90% confluence the media is removed and replaced with Hybritech media containing 2% horse serum, […] dextran sulfate, 1 mg/mL nucellin, 1 mg/mL human transferrin (partially iron saturated), 50 mg/mL tobramycin, 20 mM HEPES, […] geneticin, 0.04% pluronic F68. […]
To prepare membranes, the above pellets are resuspended in ice-cold Tris buffer (20 mM Tris HCl, pH 7.4 at 23° C., 5 mM EDTA) and homogenized with a Wheaton tissue grinder. […] Protein concentrations are determined by the method of Bradford. […]

[3] = molecular target: T3, 5-HT2B (Homo sapiens, UniProt P41595); assay: Radioligand binding assay, 5-HT2B
T3 construct: expressed in transfected cells
Experimental: as §1, §2

T2 sequence (P34969 whole entry): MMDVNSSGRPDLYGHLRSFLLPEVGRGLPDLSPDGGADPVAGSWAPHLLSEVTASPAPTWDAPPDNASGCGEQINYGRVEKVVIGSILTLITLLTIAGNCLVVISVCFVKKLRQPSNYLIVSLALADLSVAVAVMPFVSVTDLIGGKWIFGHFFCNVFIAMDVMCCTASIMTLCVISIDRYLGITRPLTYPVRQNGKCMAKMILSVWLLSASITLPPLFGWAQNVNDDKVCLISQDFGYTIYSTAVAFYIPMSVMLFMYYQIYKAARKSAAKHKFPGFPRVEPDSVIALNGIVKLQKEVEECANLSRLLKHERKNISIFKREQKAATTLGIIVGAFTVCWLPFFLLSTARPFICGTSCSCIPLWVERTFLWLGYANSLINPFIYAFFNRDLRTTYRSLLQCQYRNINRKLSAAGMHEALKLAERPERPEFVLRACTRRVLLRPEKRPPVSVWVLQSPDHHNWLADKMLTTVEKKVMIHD
T3 sequence (P41595 whole entry, species assumed): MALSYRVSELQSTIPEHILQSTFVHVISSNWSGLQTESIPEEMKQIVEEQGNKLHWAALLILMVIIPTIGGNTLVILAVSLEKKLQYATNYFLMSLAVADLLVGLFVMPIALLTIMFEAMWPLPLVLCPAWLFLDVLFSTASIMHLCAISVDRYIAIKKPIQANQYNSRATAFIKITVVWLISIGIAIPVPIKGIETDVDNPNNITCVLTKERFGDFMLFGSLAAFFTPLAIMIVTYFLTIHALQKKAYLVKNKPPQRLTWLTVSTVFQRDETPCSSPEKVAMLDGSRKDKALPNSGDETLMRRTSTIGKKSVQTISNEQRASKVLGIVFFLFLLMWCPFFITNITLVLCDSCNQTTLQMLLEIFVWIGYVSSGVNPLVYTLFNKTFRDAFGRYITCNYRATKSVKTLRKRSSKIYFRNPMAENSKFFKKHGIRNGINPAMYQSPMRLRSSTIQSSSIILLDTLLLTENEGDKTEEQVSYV

## CCn1ncc(CN2CCN(c3cccnc3N3CCC(O)CC3)CC2)c1C.Cl [Example 1, 3′-[4-(1-Ethyl-5-methyl-1H-pyrazol-4-ylmethyl)-piperazin-1-yl]-3,4,5,6-tetrahydro-2H-[1,2]bipyridinyl-4-ol hydrochloride]
[1]
  Ki: 213 nM
[2]
  Ki: ~16.2 nM and 16.2 nM
[3]
  Ki: > 6810 nM
